Results from ChEMBL document CHEMBL1121833, “Structure--sweetness relationship of L-aspartyl dipeptide analogues. A receptor site topology” (J Med Chem, 1981).

Test: Sweet potency as logarithm of sweet potency (log SP) relative to sucrose; Tasteless
Assay type: functional

| SMILES | Log SP |
| --- | --- |
| CCC[C@H](C)NC(=O)[C@H](N)CC(=O)O | Tasteless |
| N[C@H](CC(=O)O)C(=O)NCCc1ccccc1 | Tasteless |
| CC(C)CCCNC(=O)[C@H](N)CC(=O)O | Tasteless |

Test: Sweet potency as logarithm of sweet potency (log SP) relative to sucrose; Bitter
Assay type: functional

| SMILES | Log SP |
| --- | --- |
| C[C@@H](CC1CCCCC1)N(C)C(=O)[C@H](N)CC(=O)O | Bitter |
| C[C@@H](Cc1ccc(NS(C)(=O)=O)cc1)NC(=O)[C@H](N)CC(=O)O | Bitter |
| COC(=O)[C@@H](CCCCN)NC(=O)[C@H](N)CC(=O)O | Bitter |
| C[C@@H](Cc1ccc2c(c1)OCO2)NC(=O)[C@H](N)CC(=O)O | Bitter |
| CC(CNC(=O)[C@H](N)CC(=O)O)c1ccccc1 (some centres undefined) | Bitter |
| C[C@@H](Cc1ccccc1)N(C)C(=O)[C@H](N)CC(=O)O | Bitter |
| CCC[C@H](CC)NC(=O)[C@H](N)CC(=O)O | Bitter |
| C[C@@H](Cc1cc2ccccc2[nH]1)NC(=O)[C@H](N)CC(=O)O | Bitter |
| C[C@H](CC1CCCCC1)N(C)C(=O)[C@H](N)CC(=O)O | Bitter |
| C[C@H](Cc1ccccc1)N(C)C(=O)[C@H](N)CC(=O)O | Bitter |
| CC(C)C[C@H](C)NC(=O)[C@H](N)CC(=O)O | Bitter |

Test: Sweet potency as logarithm of sweet potency (log SP) relative to sucrose
Assay type: functional

| SMILES | Log SP |
| --- | --- |
| CCOC(=O)[C@H](NC(=O)[C@H](N)CC(=O)O)C(=O)OC(C)(C)C | 2.32 |

Test: Sweet potency as logarithm of sweet potency (log SP) relative to sucrose; Sweet
Assay type: functional

| SMILES | Log SP |
| --- | --- |
| N[C@H](CC(=O)O)C(=O)NCCOc1ccccc1 | Sweet |
| CCOC(=O)[C@H](NC(=O)[C@H](N)CC(=O)O)C(=O)OC(C)(C)C | Sweet |
| N[C@H](CC(=O)O)C(=O)NCCc1ccc(O)cc1 | Sweet |
| N[C@H](CC(=O)O)C(=O)NCCc1ccco1 | Sweet |
| C[C@@H](Cc1ccc(O)cc1)NC(=O)[C@H](N)CC(=O)O | Sweet |
| CCCC[C@H](CC)NC(=O)[C@H](N)CC(=O)O | Sweet |
| CCCCCCCNC(=O)[C@H](N)CC(=O)O | Sweet |
| N[C@H](CC(=O)O)C(=O)N[C@@H](CO)Cc1ccc(O)cc1 | Sweet |
| C[C@H](NC(=O)[C@H](N)CC(=O)O)C(O)c1ccccc1 (some centres undefined) | Sweet |
